pIC50: −log10 of the molar value.
Tests used:
[1] = system: CD69 expression on CD19+ B cells in human whole blood; experiment: In Vitro Whole Blood CD69 Assay; type: cell-based; conditions: B-cell; human heparinized whole blood, anti-human IgD stimulation, overnight (18 to 22 hours), percentage of CD19+ B cells expressing CD69, flow cytometry; read-out: In Vitro HWB CD69 Assay IC50 Score
Method: Human heparinized venous blood from health donors was aliquoted into 96-well plate and “spiked” with serial dilutions of formula I compounds in DMSO or with DMSO without drug. The final concentration of DMSO in all wells was 0.1%. The plate was incubated at 37° C. for 30 min. Drug-containing samples were stimulated with […] mouse anti-human IgD-dextran (1A62) or 20 μg/mL polyclonal rabbit F(ab′)2 anti-human IgD.
Phosphate-buffered saline (PBS) was added to the negative control unstimulated sample and the plates were incubated overnight (18 to 22 hours) at 37° C. Cells were stained with fluorochrome-conjugated anti-CD19 and anti-CD69 antibodies. Lyse/fix solution was used to remove red blood cells by hypotonic lysis and to fix the remaining cells, which were then analyzed by flow cytometry. CD19+B cells were gated and analyzed for CD69 expression.
The percentage of B cells expressing CD69 was plotted versus the log 10 of the concentration of the drug and the best-fit curves (variable Hill slope) were generated to obtain the IC50 value.
“†” represents an IC50 of greater than 10 μM. “††” represents an IC50 of greater than 1 μM and equal to or less than 10 μM (1 μM<IC50≤10 μM). “†††” represents an IC50 of less than 1 μM.

BTK = biological target: T1, BTK (Homo sapiens, UniProt Q06187); experiment: In Vitro BTK Kinase Assay: Btk-PolyGAT-LS Assay; type: biochemical; conditions: active BTK enzyme 0.25 nM, fluorescein-labeled polyGAT peptide 100 nM, 30 minutes incubation, TRF readout; read-out: In Vitro BTK Kinase Assay IC50 Score
T1 construct: purchased Upstate 14-552
Method: The purpose of the BTK in vitro assay is to determine compound potency against BTK through the measurement of IC50. Compound inhibition is measured after monitoring the amount of phosphorylation of a fluorescein-labeled polyGAT peptide (Invitrogen PV3611) in the presence of active BTK enzyme (Upstate 14-552), ATP, and inhibitor. The BTK kinase reaction was done in a black 96 well plate (costar 3694). For a typical assay, a 24 μL aliquot of a ATP/peptide master mix (final concentration; ATP […], polyGAT 100 nM) in kinase buffer (10 mM Tris-HCl pH 7.5, 10 mM MgCl2, 200 μM […], 5 mM DTT, 0.01% Triton X-100, and 0.2 mg/ml casein) is added to each well. Next, I uL of a 4-fold, 40× compound titration in 100% DMSO solvent is added, followed by adding […] of BTK enzyme mix in 1× kinase buffer (with a final concentration of 0.25 nM). The assay is incubated for 30 minutes before being stopped with […] of a 50 mM EDTA solution. Aliquots (5 uL) of the kinase reaction are transferred to a low volume white 384 well plate (Corning 3674), and […] of a 2× detection buffer (Invitrogen PV3574, with 4 nM Tb-PY20 antibody, Invitrogen PV3552) is added. The plate is covered and incubated for 45 minutes at room temperature. Time resolved fluorescence (TRF) on Molecular Devices M5 (332 nm excitation; 488 nm emission; 518 nm fluorescein emission) is measured. IC50 values are calculated using a four parameter fit with 100% enzyme activity determined from the DMSO control and 0% activity from the EDTA control.
“†” represents an IC50 of greater than 1 μM and equal to or less than 10 μM. “††” represents an IC50 of greater than 10 nM and equal to or less than 1 μM (10 nM<IC50≤1 μM). “†††” represents an IC50 of greater than 1 nM and equal to or less than 10 nM (1 nM<IC50≤10 nM). “††††” represents an IC50 of less than 1 nM.

T1 sequence (Q06187 whole entry): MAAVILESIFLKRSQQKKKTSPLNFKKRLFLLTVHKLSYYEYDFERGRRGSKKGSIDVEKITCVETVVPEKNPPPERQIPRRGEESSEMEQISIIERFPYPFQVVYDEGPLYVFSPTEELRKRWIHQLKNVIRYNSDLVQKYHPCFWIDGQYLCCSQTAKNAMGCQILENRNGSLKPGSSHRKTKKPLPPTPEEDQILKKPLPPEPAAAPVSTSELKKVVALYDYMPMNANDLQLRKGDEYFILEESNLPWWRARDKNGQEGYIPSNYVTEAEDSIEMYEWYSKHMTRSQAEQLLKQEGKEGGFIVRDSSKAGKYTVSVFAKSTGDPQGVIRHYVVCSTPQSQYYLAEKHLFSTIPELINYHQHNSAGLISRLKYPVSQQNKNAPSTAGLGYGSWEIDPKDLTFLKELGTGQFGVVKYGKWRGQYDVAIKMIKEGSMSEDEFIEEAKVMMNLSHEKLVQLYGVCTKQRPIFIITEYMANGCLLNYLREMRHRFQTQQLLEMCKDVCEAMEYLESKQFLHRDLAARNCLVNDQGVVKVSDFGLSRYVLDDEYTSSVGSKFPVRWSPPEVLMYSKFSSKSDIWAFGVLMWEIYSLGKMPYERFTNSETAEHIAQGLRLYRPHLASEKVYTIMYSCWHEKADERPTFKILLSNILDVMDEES

Row | SMILES | pIC50 [1] | pIC50 (BTK)
1 | C=CC(=O)N(C)[C@@H]1CCC[C@@H](c2nc(-c3cnn(C)c3)cn3nccc23)C1 (single isomer, unassigned) [Example 24, trans-N-methyl-N-(3-(6-(1-methyl-1H-pyrazol-4-yl)pyrazolo[1,5-a]pyrazin-4-yl)cyclohexyl)acrylamide] | 5.00 to 6.00 | 6.00 to 8.00
2 | C=CC(=O)N1C[C@H]2C[C@H](c3nc(-c4cnn(C)c4)cn4nccc34)C[C@H]2C1 [Example 2, 1-[(3aS,6aR)-5-[6-(1-methylpyrazol-4-yl)pyrazolo[1,5-a]pyrazin-4-yl]-3,3a,4,5,6,6a-hexahydro-1H-cyclopenta[c]pyrrol-2-yl]prop-2-en-1-one] | 5.00 to 6.00 | 8.00 to 9.00
3 | C=CC(=O)N1C2CCCC1CC(c1nc(-c3cnn(C)c3)cn3nccc13)C2 (stereo not shown) [Example 13, 1-[3-[6-(1-methylpyrazol-4-yl)pyrazolo[1,5-a]pyrazin-4-yl]-9-azabicyclo[3.3.1]nonan-9-yl]prop-2-en-1-one] | 5.00 to 6.00 | 8.00 to 9.00
4 | C=CC(=O)N(C)[C@@H]1CCC[C@H](c2nc(-c3cnn(C)c3)cn3nccc23)C1 (single isomer, unassigned) [Example 27, cis-N-methyl-N-(3-(6-(1-methyl-1H-pyrazol-4-yl)pyrazolo[1,5-a]pyrazin-4-yl)cyclohexyl)acrylamide] | 5.00 to 6.00 | 6.00 to 8.00
5 | C=CC(=O)N1CC2CC(c3cc(-c4cnn(C)c4)cn4nccc34)CC2C1 (stereo not shown) [Example 3, 1-[5-[6-(1-methylpyrazol-4-yl)pyrazolo[1,5-a]pyridin-4-yl]-3,3a,4,5,6,6a-hexahydro-1H-cyclopenta[c]pyrrol-2-yl]prop-2-en-1-one] | > 6.00 | > 9.00

— patent US20250090524A1, “BTK INHIBITORS” (BIOGEN MA INC., priority 2021, published 2025)
